Here are results for 2 molecules from patent US10201558B2, “Compositions of selenoorganic compounds and methods of use thereof” (Alltech, Inc., priority 2014, dated 2019).

What all share (format): cell-based, human
One experiment deals with UCP2. The experiment can be described thus: QRT-PCR of UCP2 mRNA in IMR-32 cells. As to conditions: 150 ppb, 6 hours. On the procedure:
(§1) Human IMR-32 cells were seeded on gelatinized 6-well (6.5×10^5 cells/well) or 24-well (1.3×10^5 cells/well) plates. Cells were treated with control (0 ppb) or various compounds for 6 hours or 24 hours. Total RNA from these cells was isolated using Trizol (Invitrogen) according to the manufacturer's protocol, and then incubated with DNase I to remove any potential contaminated genomic DNA. Then RNA samples were subjected to real-time PCR analysis using the Applied-Bioscience's RT kit and predesigned Taqman probes (Invitrogen), as described previously (Lan et al EMBO J 2003). The mRNA levels of UCP1, UCP2, UCP3, SLC25A27 (UCP4), SLC25A14 (UCP5), PSEN1, Nicastrin, GSK3B, MAPK11-14, PPARG, APOE, RCAN1, RCAN1.1, G6PC, INSR, IGF1R and FOXO4 were measured. Three to six samples were analyzed in each treatment group. Data were normalized by Actin B (ACTB) or Glyceraldehyde Phosphate Dehydrogenase (GAPDH) mRNA levels in each sample and are presented as mean±SEM of 3-6 samples.

For a further experiment, the system named is NICASTRIN
The experiment can be described thus: Western blot of NICASTRIN protein in IMR-32 cells. The following applies: 150 ppb, 24 hours. On the procedure:
(§2) IMR-32 cells were seeded on 6-well plates and then treated with control and various compounds for 6 hours and 24 hours, as described above. After treatments, cells were rinsed with ice-cold PBS and lysed in ice-cold RIPA buffer containing complete proteinase and phosphatase inhibitors (Thermo-Fisher Scientific, Waltham, Mass.) on ice for 30 min Cell lysates were collected using a cell scraper and transfer pipette and then centrifuged at 12000×g for 30 min at 4° C. to remove the DNA pellet and obtain the protein extract. Protein levels in the supernatant of these cell lysates were determined using the Pierce Micro-BCA protein assay kit (Thermo Scientific-Piece Biotechnology, Rockford, Ill.) according to the manufacturer's protocol […]
(§3) Positive signals on the membrane blots were detected using Amersham's enhanced chemiluminescence (ECL) Western Blotting Prime Detection reagents (GE healthcare Lifescience, Pittsburgh, Pa.). Images of these luminescence signals on the membrane blots were captured using the LI-COR Odyssey Fc Image system (Lincoln, Nebr.). […] Protein band densities in the Western blots were determined using the Li—COR Image studio software or NIH ImageJ software, and then normalized by ACTB protein level in each sample. […]
On the technique in general: Immunoblotting shows a protein as a band on a membrane.

For a further experiment, the system named is Total Tau. The experiment can be described thus: Western blot of Total Tau protein in IMR-32 cells. As to conditions: 150 ppb, 24 hours. On the procedure: as §2, §3
The next experiment has as its system GSK3B. The experiment can be described thus: QRT-PCR of GSK3B mRNA in IMR-32 cells (normal, control KD, FOXO4 KD). The following applies: for GSK3B mRNA levels: IMR-32 cells. On the procedure: IMR-32 cells were cultured on 12-well plates for 24 hours and then incubated with FOXO4 siRNA lentiviruses (SC-29650V, Santa Cruz) or control siRNA lentiviruses (sc-108080, Santa Cruz) in the presence of Polybrene (5 μg/ml, Santa Cruz) for 24 hours according to the manufacturer's protocol. These lentiviral siRNA-transfected cells were amplified in normal media for 3 days and then incubated with puromycin for 9-14 days to obtain the stable Control KD (stably transfected with the control siRNAs) and FOXO4KD (stably transfected with Foxo4 siRNAs) cells. These control and Foxo4 KD cells were subjected to cell survival, mitochondrial potential and RNA analysis.
as §1
Expression of genes such as Nicastrin and GSK3B (FIGS. 3A, 3C, 3G-3I, 4A, 4F-4H) which are associated with early-onset AD pathogenesis was attenuated by Compound C. […] Therefore, GSK3B and Nicastrin likely are two direct downstream target genes of FOXO4 in neuronal cells in humans.

The test system of the next experiment is pAKT. The experiment in a line: Western blot of pAKT in IMR-32 cells. The following applies: 6 hours and 24 hours. As to the method: as §2, §3

Molecules are shown by their SMILES. “Also recorded” adds a separate entry of the source.

Regarding `C[Se]C[C@H]1O[C@@H](n2cnc3c(N)ncnc32)C(O)C1O` (stereo in doubt) [Compound C, 5′-deoxy-5′-methylselenoadenosine], the “UCP2 mRNA expression” value in the experiment on UCP2 was “significant decrease; also recorded: inhibited”. Besides, in the experiment with NICASTRIN, the NICASTRIN protein levels result is “significant reduction”. In addition, in the experiment on Total Tau, the “total Tau protein level” value is “did not affect”. For the same molecule, the “GSK3B mRNA expression” value with GSK3B (FOXO4KD cells, 75 ppb and 150 ppb, 24 hours) is listed as “not in FOXO4KD cells”; in the experiment with GSK3B (control KD cells, 75 ppb and 150 ppb, 24 hours) it was “attenuated”. Also, the “GSK3B mRNA levels” value in the experiment with GSK3B (75 ppb and 150 ppb, 24 hours) is reported as “significantly downregulated”; in the experiment with GSK3B (150 ppb, 6 hours) it was “significantly decreased”. The pAKT protein levels result in the experiment with pAKT is recorded as “not visibly decreased”.

`C[Se]C[C@H](NC(=O)CC[C@H](N)C(=O)O)C(=O)O` [Compound E, γ-L-glutamyl-Se-methyl-L-selenocysteine]: the “UCP2 mRNA expression” value in the experiment on UCP2 is listed as “did not have any effect”. Further, the NICASTRIN protein levels entry with NICASTRIN was “trend towards reduced”. The “total Tau protein level” value with Total Tau is given as “significantly down-regulated”. The “GSK3B mRNA levels” value in the experiment with GSK3B (150 ppb, 6 hours) is on record as “did not significantly inhibit”. Further, the pAKT protein levels result in the experiment on pAKT was “not visibly decreased”.
